System: MV-4-11 cells
Assay: Gene expression microarray analysis (Affymetrix PrimeView) and GSEA
Format: cell-based, human
Parameters: RFU PODN (11730768_x_at) / Fold change /veh PODN (11730768_x_at) / RFU LINC00158 (11744669_a_at) / Fold change /veh LINC00158 (11744669_a_at) / RFU DUSP10 (11751237_a_at) / Fold change /veh DUSP10 (11751237_a_at) / RFU ID3 (11757404_x_at) / Fold change /veh ID3 (11757404_x_at) / RFU PLEKHG5 (11737974_s_at) / Fold change /veh PLEKHG5 (11737974_s_at) / RFU LRRC4B (11730491_at) / Fold change /veh LRRC4B (11730491_at) / RFU GIMAP4 (11747438_a_at) / Fold change /veh GIMAP4 (11747438_a_at) / RFU KRT8 (11758183_x_at) / Fold change /veh KRT8 (11758183_x_at) / RFU CNN1 (11734310_a_at) / Fold change /veh CNN1 (11734310_a_at) / RFU VPS37D (11726825_at) / Fold change /veh VPS37D (11726825_at) / RFU C10orf10 (11716522_x_at) / Fold change /veh C10orf10 (11716522_x_at) / RFU KIR2DL2 /// KIR2DL4 /// KIR2DL5A /// KIR2DL5B /// KIR2DS1 /// KIR2DS2 /// KIR2DS3 /// KIR2DS4 /// KIR3DL3 /// KIR3DL3 /// KIR3DS1 (11738374_at) / Fold change /veh KIR2DL2 /// KIR2DL4 /// KIR2DL5A /// KIR2DL5B /// KIR2DS1 /// KIR2DS2 /// KIR2DS3 /// KIR2DS4 /// KIR3DL3 /// KIR3DL3 /// KIR3DS1 (11738374_at) / RFU C1QL1 (11718748_at) / Fold change /veh C1QL1 (11718748_at) / RFU TMPRSS4 (11747572_a_at) / Fold change /veh TMPRSS4 (11747572_a_at) / RFU HAMP (11756126_x_at) / Fold change /veh HAMP (11756126_x_at) / RFU RNFT2 (11725882_a_at) / Fold change /veh RNFT2 (11725882_a_at) / RFU NR4A2 (11747474_a_at) / Fold change /veh NR4A2 (11747474_a_at) / RFU ABCC12 (11746883_a_at) / Fold change /veh ABCC12 (11746883_a_at) / RFU TMEM136 (11760407_x_at) / Fold change /veh TMEM136 (11760407_x_at) / RFU CLDN22 /// WWC2 (11732394_at) / Fold change /veh CLDN22 /// WWC2 (11732394_at) / RFU HLA-DPB1 (11760878_x_at) / Fold change /veh HLA-DPB1 (11760878_x_at) / RFU SPINT1 (11716480_a_at) / Fold change /veh SPINT1 (11716480_a_at) / RFU GAP43 (11754022_s_at) / Fold change /veh GAP43 (11754022_s_at) / RFU A4GNT (11735810_at) / Fold change /veh A4GNT (11735810_at) / RFU PRB3 (11715151_x_at) / Fold change /veh PRB3 (11715151_x_at) / RFU TUBB4B (11761932_at) / Fold change /veh TUBB4B (11761932_at) / RFU CAPN14 (11732068_a_at) / Fold change /veh CAPN14 (11732068_a_at) / RFU TMCC2 (11721928_a_at) / Fold change /veh TMCC2 (11721928_a_at) / RFU IRGQ (11745062_a_at) / Fold change /veh IRGQ (11745062_a_at) / RFU FAM174B (11720279_a_at) / Fold change /veh FAM174B (11720279_a_at) / RFU TMPRSS4 (11748680_a_at) / Fold change /veh TMPRSS4 (11748680_a_at) / RFU FAM212B (11763350_a_at) / Fold change /veh FAM212B (11763350_a_at) / RFU PLEKHG5 (11743358_a_at) / Fold change /veh PLEKHG5 (11743358_a_at) / RFU ZSCAN30 (11745921_a_at) / Fold change /veh ZSCAN30 (11745921_a_at) / RFU CMKLR1 (11741424_a_at) / Fold change /veh CMKLR1 (11741424_a_at) / RFU LOC101060620 /// MAPK8IP1 (11723275_at) / Fold change /veh LOC101060620 /// MAPK8IP1 (11723275_at) / RFU SPTSSB (11747773_x_at) / Fold change /veh SPTSSB (11747773_x_at) / RFU PRSS12 (11739890_at) / Fold change /veh PRSS12 (11739890_at) / RFU BIN1 (11741810_x_at) / Fold change /veh BIN1 (11741810_x_at) / RFU WNT11 (11732464_a_at) / Fold change /veh WNT11 (11732464_a_at) / RFU C10orf10 (11716521_a_at) / Fold change /veh C10orf10 (11716521_a_at) / RFU C5orf56 (11738089_at) / Fold change /veh C5orf56 (11738089_at) / RFU CYB561 (11721691_x_at) / Fold change /veh CYB561 (11721691_x_at) / RFU ANKRD19P (11752326_a_at) / Fold change /veh ANKRD19P (11752326_a_at) / RFU OR2T12 /// OR2T33 /// OR2T8 (11738714_s_at) / Fold change /veh OR2T12 /// OR2T33 /// OR2T8 (11738714_s_at) / RFU VCAN (11748164_a_at) / Fold change /veh VCAN (11748164_a_at) / RFU JSRP1 (11732532_at) / Fold change /veh JSRP1 (11732532_at) / RFU KRTAP10-11 (11738290_x_at) / Fold change /veh KRTAP10-11 (11738290_x_at) / RFU MYO3A (11730013_a_at) / Fold change /veh MYO3A (11730013_a_at) / RFU EBF3 (11725865_a_at) / Fold change /veh EBF3 (11725865_a_at) / RFU CAMK2N1 (11719241_x_at) / Fold change /veh CAMK2N1 (11719241_x_at) / RFU C5orf56 (11738088_a_at) / Fold change /veh C5orf56 (11738088_a_at) / RFU OLFML3 (11715873_a_at) / Fold change /veh OLFML3 (11715873_a_at) / RFU LOC100653217 /// NTM (11731650_a_at) / Fold change /veh LOC100653217 /// NTM (11731650_a_at) / RFU MAPK11 (11762145_a_at) / Fold change /veh MAPK11 (11762145_a_at) / RFU FIZ1 (11724087_x_at) / Fold change /veh FIZ1 (11724087_x_at) / RFU OASL (11726364_x_at) / Fold change /veh OASL (11726364_x_at) / RFU SOX15 (11748057_x_at) / Fold change /veh SOX15 (11748057_x_at) / RFU CD79A (11719716_a_at) / Fold change /veh CD79A (11719716_a_at) / RFU HIST1H1D (11736915_at) / Fold change /veh HIST1H1D (11736915_at) / RFU CASKIN2 (11723855_a_at) / Fold change /veh CASKIN2 (11723855_a_at) / RFU LOC730098 (11760151_x_at) / Fold change /veh LOC730098 (11760151_x_at) / RFU OR4N2 (11742367_at) / Fold change /veh OR4N2 (11742367_at) / RFU PRRT2 (11749266_a_at) / Fold change /veh PRRT2 (11749266_a_at) / RFU SNX32 (11753110_a_at) / Fold change /veh SNX32 (11753110_a_at) / RFU CDHR5 (11726645_a_at) / Fold change /veh CDHR5 (11726645_a_at) / RFU RCAN1 (11760418_a_at) / Fold change /veh RCAN1 (11760418_a_at) / RFU FAM167A (11723789_a_at) / Fold change /veh FAM167A (11723789_a_at) / RFU FAM26E (11764081_at) / Fold change /veh FAM26E (11764081_at) / RFU ISYNA1 (11749810_s_at) / Fold change /veh ISYNA1 (11749810_s_at) / RFU ACY1 (11761880_at) / Fold change /veh ACY1 (11761880_at) / RFU 11764098_at / Fold change /veh 11764098_at / RFU SAMD14 (11745864_x_at) / Fold change /veh SAMD14 (11745864_x_at) / RFU NPB (11741838_a_at) / Fold change /veh NPB (11741838_a_at) / RFU TMPRSS6 (11731388_a_at) / Fold change /veh TMPRSS6 (11731388_a_at) / RFU KRTAP10-2 (11738614_at) / Fold change /veh KRTAP10-2 (11738614_at) / RFU ARHGAP8 /// PRR5-ARHGAP8 (11727945_x_at) / Fold change /veh ARHGAP8 /// PRR5-ARHGAP8 (11727945_x_at) / RFU KRTAP5-7 /// NADSYN1 (11734609_at) / Fold change /veh KRTAP5-7 /// NADSYN1 (11734609_at) / RFU RASL12 (11751679_a_at) / Fold change /veh RASL12 (11751679_a_at) / RFU CDKN2B (11736163_a_at) / Fold change /veh CDKN2B (11736163_a_at) / RFU PRF1 (11729649_at) / Fold change /veh PRF1 (11729649_at) / RFU, ZNF638 /// ZNF638-IT1 / Fold change vs veh, ZNF638 /// ZNF638-IT1 / RFU, PANK3 / Fold change vs veh, PANK3 / RFU, SH3YL1 / Fold change vs veh, SH3YL1 / RFU, ZEB2 / Fold change vs veh, ZEB2 / RFU, NRIP1 / Fold change vs veh, NRIP1 / RFU, PTTG1IP / Fold change vs veh, PTTG1IP / RFU, CAPN2 / Fold change vs veh, CAPN2 / RFU, MED14 / Fold change vs veh, MED14 / RFU, SNORA58 / Fold change vs veh, SNORA58 / RFU, C1orf63 / Fold change vs veh, C1orf63 / RFU, LRRFIP1 / Fold change vs veh, LRRFIP1 / RFU, NDUFAF7 / Fold change vs veh, NDUFAF7 / RFU, SLC12A2 / Fold change vs veh, SLC12A2 / RFU, IBTK / Fold change vs veh, IBTK / RFU, ESF1 / Fold change vs veh, ESF1 / Fold change vs veh, TMEM50B / RFU, TAOK1 / Fold change vs veh, TAOK1 / RFU, ACBD3 / Fold change vs veh, ACBD3 / RFU, TMA16 / Fold change vs veh, TMA16 / RFU, RWDD3 / Fold change vs veh, RWDD3 / RFU, BCAT1 / Fold change vs veh, BCAT1 / RFU, EDEM3 / Fold change vs veh, EDEM3 / RFU, TMEM33 / Fold change vs veh, TMEM33 / RFU, WDR75 / Fold change vs veh, WDR75 / RFU, AHCTF1 / Fold change vs veh, AHCTF1 / RFU, TFRC / Fold change vs veh, TFRC / RFU, ZDHHC17 / Fold change vs veh, ZDHHC17 / RFU, NOM1 / Fold change vs veh, NOM1 / RFU, ARL8B / Fold change vs veh, ARL8B / RFU, ZBTB11 / Fold change vs veh, ZBTB11 / RFU, TAMM41 / Fold change vs veh, TAMM41 / RFU, KIAA1704 /// LOC100996395 / Fold change vs veh, KIAA1704 /// LOC100996395 / RFU, ING1 / Fold change vs veh, ING1 / RFU, TRMT61B / Fold change vs veh, TRMT61B / RFU, FUBP3 / Fold change vs veh, FUBP3 / RFU, TP53 / Fold change vs veh, TP53 / RFU, TNKS2 / Fold change vs veh, TNKS2 / RFU, ZFP14 / Fold change vs veh, ZFP14 / RFU, ACTR2 / Fold change vs veh, ACTR2 / RFU, PPP3R1 / Fold change vs veh, PPP3R1 / RFU, PIK3R1 / Fold change vs veh, PIK3R1 / RFU, HNRNPA1 / Fold change vs veh, HNRNPA1 / RFU, RNF170 / Fold change vs veh, RNF170 / RFU, ZNF28 / Fold change vs veh, ZNF28 / RFU, RNGTT / Fold change vs veh, RNGTT / RFU, OGT / Fold change vs veh, OGT / RFU, BRD1 / Fold change vs veh, BRD1 / RFU, MARS / Fold change vs veh, MARS / RFU, ZNF655 / Fold change vs veh, ZNF655 / RFU, FAHD1 / Fold change vs veh, FAHD1 / RFU, BDP1 / Fold change vs veh, BDP1 / RFU, LRRCC1 / Fold change vs veh, LRRCC1 / RFU, ARID1A / Fold change vs veh, ARID1A / RFU, ZNF146 / Fold change vs veh, ZNF146 / RFU, ZNF330 / Fold change vs veh, ZNF330 / RFU, GPN3 / Fold change vs veh, GPN3 / RFU, C9orf123 / Fold change vs veh, C9orf123 / RFU, N4BP2L2 / Fold change vs veh, N4BP2L2 / RFU, ARFIP1 / Fold change vs veh, ARFIP1 / RFU, FAM179B / Fold change vs veh, FAM179B / RFU, BCL10 / Fold change vs veh, BCL10 / RFU, UHRF1BP1L / Fold change vs veh, UHRF1BP1L / RFU, BET1 / Fold change vs veh, BET1 / RFU, CNOT2 / Fold change vs veh, CNOT2 / RFU, ZNF268 / Fold change vs veh, ZNF268 / Fold change vs veh, ZNF507 / RFU, DGCR2 / Fold change vs veh, DGCR2 / RFU, WDSUB1 / Fold change vs veh, WDSUB1 / Fold change vs veh, HSP90B1 /// MIR3652 / RFU, ADSS / Fold change vs veh, ADSS / RFU, GK / Fold change vs veh, GK / RFU, ZNF148 / Fold change vs veh, ZNF148 / RFU, TAF9 / Fold change vs veh, TAF9 / RFU, SLC1A5 / Fold change vs veh, SLC1A5 / RFU, SLMO2 / Fold change vs veh, SLMO2 / RFU, ABCC4 / Fold change vs veh, ABCC4 / RFU, LOC101060439 /// RAP1B / Fold change vs veh, LOC101060439 /// RAP1B / RFU, RFX7 / Fold change vs veh, RFX7 / RFU, GTPBP10 / Fold change vs veh, GTPBP10 / RFU, CNEP1R1 / Fold change vs veh, CNEP1R1 / RFU, BIVM-ERCC5 /// ERCC5 / Fold change vs veh, BIVM-ERCC5 /// ERCC5 / RFU, ILF3 / Fold change vs veh, ILF3 / RFU 11762660_at / Fold change /veh 11762660_at / RFU VCAN (11757783_s_at) / Fold change /veh VCAN (11757783_s_at) / RFU DDX43 (11728927_at) / Fold change /veh DDX43 (11728927_at) / RFU KRT8 (11758188_x_at) / Fold change /veh KRT8 (11758188_x_at) / RFU NKD1 (11759106_at) / Fold change /veh NKD1 (11759106_at) / RFU SRD5A1 (11742802_a_at) / Fold change /veh SRD5A1 (11742802_a_at) / RFU TPSAB1 /// TPSB2 (11721975_s_at) / Fold change /veh TPSAB1 /// TPSB2 (11721975_s_at) / RFU GSTM3 (11746129_a_at) / Fold change /veh GSTM3 (11746129_a_at) / RFU IL23R (11737362_x_at) / Fold change /veh IL23R (11737362_x_at) / RFU TMEM51 (11727254_a_at) / Fold change /veh TMEM51 (11727254_a_at) / RFU PIWIL2 (11732686_x_at) / Fold change /veh PIWIL2 (11732686_x_at) / RFU ORM1 (11744905_x_at) / Fold change /veh ORM1 (11744905_x_at) / RFU CCDC152 (11743942_at) / Fold change /veh CCDC152 (11743942_at) / RFU ECM1 (11717891_a_at) / Fold change /veh ECM1 (11717891_a_at) / RFU IL23R (11748794_a_at) / Fold change /veh IL23R (11748794_a_at) / RFU TNFAIP8L3 (11732012_x_at) / Fold change /veh TNFAIP8L3 (11732012_x_at) / RFU MBOAT4 (11741988_at) / Fold change /veh MBOAT4 (11741988_at) / RFU 11764193_at / Fold change /veh 11764193_at / RFU TMEM53 (11763286_at) / Fold change /veh TMEM53 (11763286_at) / RFU MAGEB2 (11727129_at) / Fold change /veh MAGEB2 (11727129_at) / RFU TMEM200A (11744735_a_at) / Fold change /veh TMEM200A (11744735_a_at) / RFU CCDC152 (11751479_a_at) / Fold change /veh CCDC152 (11751479_a_at) / RFU FAM211A (11726209_a_at) / Fold change /veh FAM211A (11726209_a_at) / RFU RGS16 (11746705_a_at) / Fold change /veh RGS16 (11746705_a_at) / RFU VCAN (11755009_s_at) / Fold change /veh VCAN (11755009_s_at) / RFU RHOB (11743442_s_at) / Fold change /veh RHOB (11743442_s_at) / RFU RGS16 (11720943_a_at) / Fold change /veh RGS16 (11720943_a_at) / RFU RGS16 (11720944_at) / Fold change /veh RGS16 (11720944_at) / RFU, VPS4B / Fold change vs veh, VPS4B / RFU, CREB1 / Fold change vs veh, CREB1 / RFU, DNAJC13 / Fold change vs veh, DNAJC13 / RFU, GNAQ / Fold change vs veh, GNAQ / RFU, CDK5R1 / Fold change vs veh, CDK5R1 / RFU, ZRANB3 / Fold change vs veh, ZRANB3 / RFU, CUL4A / Fold change vs veh, CUL4A / RFU, CCNY / Fold change vs veh, CCNY / RFU, UFL1 / Fold change vs veh, UFL1 / RFU, COG3 / Fold change vs veh, COG3 / RFU, DIAPH2 / Fold change vs veh, DIAPH2 / RFU, SKA2 / Fold change vs veh, SKA2 / RFU, AFF3 / Fold change vs veh, AFF3 / RFU, LMF1 / Fold change vs veh, LMF1 / RFU, IPO11 / Fold change vs veh, IPO11 / RFU, DFFB / Fold change vs veh, DFFB / RFU, FOXP1 / Fold change vs veh, FOXP1 / RFU, CARD8 / Fold change vs veh, CARD8 / RFU, STRN3 / Fold change vs veh, STRN3 / RFU, ADK / Fold change vs veh, ADK / RFU, RASSF2 / Fold change vs veh, RASSF2 / RFU, WIPF1 / Fold change vs veh, WIPF1 / RFU, LARP1B / Fold change vs veh, LARP1B / RFU, RASA1 / Fold change vs veh, RASA1 / RFU, RB1 / Fold change vs veh, RB1 / RFU, PPFIA1 / Fold change vs veh, PPFIA1 / RFU, MAT2A / Fold change vs veh, MAT2A / RFU, CCT5 / Fold change vs veh, CCT5 / RFU, WDR92 / Fold change vs veh, WDR92 / RFU, CUX1 / Fold change vs veh, CUX1 / RFU, TTC7A / Fold change vs veh, TTC7A / RFU, TMEM135 / Fold change vs veh, TMEM135 / RFU, DEPTOR / Fold change vs veh, DEPTOR / RFU, CPM / Fold change vs veh, CPM / RFU, DNAJB6 / Fold change vs veh, DNAJB6 / RFU, CACNA2D3 / Fold change vs veh, CACNA2D3 / RFU, DTX4 / Fold change vs veh, DTX4 / RFU, TFCP2 / Fold change vs veh, TFCP2 / RFU, GMCL1 /// GMCL1P1 / Fold change vs veh, GMCL1 /// GMCL1P1 / RFU, AEBP2 / Fold change vs veh, AEBP2 / RFU, SNHG1 /// SNORD22 /// SNORD25 /// SNORD26 /// SNORD27 /// SNORD28 /// SNORD29 /// SNORD31 / Fold change vs veh, SNHG1 /// SNORD22 /// SNORD25 /// SNORD26 /// SNORD27 /// SNORD28 /// SNORD29 /// SNORD31 / Fold change (Aza/veh), C12orf56 (ProbeSet 11735607_a_at) / Fold change (ACY-1035/veh), C12orf56 (ProbeSet 11735607_a_at) / Fold change (Aza/veh), FGFR1OP (ProbeSet 11751329_s_at) / Fold change (ACY-1035/veh), FGFR1OP (ProbeSet 11751329_s_at) / Fold change (Aza/veh), VPS36 (ProbeSet 11739960_a_at) / Fold change (ACY-1035/veh), VPS36 (ProbeSet 11739960_a_at) / RFU SYPL1 (11715823_x_at) / Fold change /veh SYPL1 (11715823_x_at) / RFU IGFBP7 (11715501_s_at) / Fold change /veh IGFBP7 (11715501_s_at) / RFU REEP3 (11722064_at) / Fold change /veh REEP3 (11722064_at) / RFU IGLL1 (11728026_x_at) / Fold change /veh IGLL1 (11728026_x_at): dose or concentration left out as unconfirmed
Conditions: MV-4-11 cells, 48 hours

Nc1ncn([C@@H]2O[C@H](CO)[C@@H](O)[C@H]2O)c(=O)n1 [azacitidine]
Fold change /veh CDHR5 (11726645_a_at): 1.19
